Experiment [1] relates to MMP-3 levels in supernatant of chondrocytes stimulated with IL1-β. The experiment is described as follows: Chondrocyte protection assay compound screening (MMP-3 LANCE Ultra). The experiment is classed as cell-based, human. The settings on record: Homo sapiens, Chondrocyte, IL1-β 10 ng/mL overnight, 11-point curves from 3 μM to 0.05 nM; for Emax: read-out: Maximum % Inhibition. As for the experimental part:
Human Chondrocyte Cell Culture: Primary human chondrocytes were purchased from Lonza (Walkersville, Md.) and expanded in Chondrocyte Growth Media (CGM, Lonza). Cells between passage 2 and 5 were used for the experiments.
Chondrocytes were plated at 8,000 cells/well in 40 μL/well Chondrocyte Differentiation Medium (Lonza; 500 mL Basal Medium, 25 mL FBS, 0.5 mL GA-1000, 1 mL R3-IGF, 2.5 mL bFGF, 0.5 mL Transferrin, and 1 mL Insulin). After 2 hours of incubation at 37° C. and 5% CO2, IL1-β (Peprotech, Rocky Hill, N.J.) was added to a final concentration of 10 ng/mL. 11 wells in 1 row were left unstimulated for normalization and calculating EC50 values. Cells were incubated at 37° C. and 5% CO2 overnight. Assay plates are spun, 25 μl of supernatant media was collected using (S2 pipettor, Apricot Designs). Cells were lysed using 10 μL of (Cell Titer-Glo, Promega). Luminescent signal detected using an En Vision Multilabel reader (Perkin Elmer). MMP-3 levels were measured in supernatant. Supernatant diluted 1:7 in DMEM. MMP-3 levels in the supernatant were measured using MMP-3 LANCE Ultra detection kit (Perkin Elmer). Briefly, 5 μL of diluted supernatant was transferred to low-volume 384 well plates using (S2 pipettor, Apricot Designs). A standard curve was prepared using MMP-3 analyte (range […]). 1.7 μL of 8× mix of Eu-labelled anti-MMP-3 antibody and ULight labelled anti-MMP-3 antibody was added to the plates using Mantis Liquid handler (Formulatrix). Plates were incubated overnight at room temperature. LANCE signal was detected using an EnVision Multilabel reader (Perkin Elmer), equipped with TR-FRET using excitation wavelength of 320 nm and two emission wavelengths of 615 nm and 665 nm. Data was analyzed according to the kit protocol, using the ratio of […] and the standard curve values were used to calculate the amount of MMP3 in the […] (in pg/ml). The normalized averages (fold change over IL1-β stimulated) for each compound concentration were calculated. EC50 and maximum % inhibition values were calculated using the dose-response nonlinear regression curve-fit in Dotmatics.
(In TR-FRET formats the signal depends on donor and acceptor labels being close together.)

Experiment [2] deals with CLK3 kinase (Homo sapiens, UniProt P49761). Put plainly: CLK3 kinase activity assay (Z-lyte FRET).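 Note: kinase activity read as coumarin/fluorescein emission ratio by FRET, unphosphorylated peptide as 0% and phosphorylated peptide as 100% control, values from non-linear regression of dose-response curves.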 The experiment is classed as biochemical. The settings on record: Z-lyte Ser/Thr 18 peptide, 156 μM ATP, 1 h at room temperature.
For experiment [3], the target named is CLK2 kinase (Homo sapiens, UniProt P49760). The experiment is described as follows: CLK2 kinase activity assay (Z-lyte FRET).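 Note: FRET read-out as coumarin to fluorescein emission ratio, unphosphorylated peptide as 0% and phosphorylated peptide as 100% controls, duplicate reactions, non-linear regression fit of dose-response curves.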 It counts as biochemical. The settings on record: Z-lyte Ser/Thr 6 peptide, 60 μM ATP, 1 h at room temperature.
In experiment [4] the test system is Wnt pathway activity (SW480 colon carcinoma cells stably expressing the Sp5-Luc reporter). Put plainly: Wnt pathway activity screening assay (Sp5-Luc reporter gene assay). The settings on record: Homo sapiens, SW480, Table 4; SW480 cells stably expressing Sp5-Luc reporter, 10-point dose-response from 10 μM, 36 to 48 hours.
For experiment [5], the system named is primary human mesenchymal stem cells (hMSCs). The experiment is described as follows: Chondrogenesis screening using primary human mesenchymal stem cells. The settings on record: Homo sapiens, Mesenchymal stem cells, hMSC chondrogenesis; maximum activity relative to TGF-β3 (10 ng/mL) positive control; read-out: Max. Activity as % TGF-β3 activity. It counts as cell-based. Summed up: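 Primary hMSCs at passage 3–6 were treated across compound concentrations, with TGF-β3 as positive control. Chondrogenic nodule area per well was normalized to 3 DMSO wells on the same plate (fold over DMSO, 2–3 replicates). EC50, maximum activity and the dose reaching it were derived.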

Sequence of CLK3 kinase (P49761 whole entry): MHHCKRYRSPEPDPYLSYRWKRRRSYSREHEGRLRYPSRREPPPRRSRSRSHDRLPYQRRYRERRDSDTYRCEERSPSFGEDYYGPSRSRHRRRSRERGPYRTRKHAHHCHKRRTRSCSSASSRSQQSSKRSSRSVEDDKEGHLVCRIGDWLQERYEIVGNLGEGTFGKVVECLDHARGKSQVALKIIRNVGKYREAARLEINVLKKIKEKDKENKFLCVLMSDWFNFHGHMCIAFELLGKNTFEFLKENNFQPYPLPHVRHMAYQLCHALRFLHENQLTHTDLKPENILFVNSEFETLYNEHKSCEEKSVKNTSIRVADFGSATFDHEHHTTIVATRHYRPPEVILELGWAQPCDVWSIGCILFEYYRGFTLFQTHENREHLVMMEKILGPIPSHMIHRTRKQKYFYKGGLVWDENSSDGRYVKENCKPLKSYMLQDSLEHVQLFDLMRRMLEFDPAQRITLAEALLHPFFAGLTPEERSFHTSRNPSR
Sequence of CLK2 kinase (P49760 whole entry): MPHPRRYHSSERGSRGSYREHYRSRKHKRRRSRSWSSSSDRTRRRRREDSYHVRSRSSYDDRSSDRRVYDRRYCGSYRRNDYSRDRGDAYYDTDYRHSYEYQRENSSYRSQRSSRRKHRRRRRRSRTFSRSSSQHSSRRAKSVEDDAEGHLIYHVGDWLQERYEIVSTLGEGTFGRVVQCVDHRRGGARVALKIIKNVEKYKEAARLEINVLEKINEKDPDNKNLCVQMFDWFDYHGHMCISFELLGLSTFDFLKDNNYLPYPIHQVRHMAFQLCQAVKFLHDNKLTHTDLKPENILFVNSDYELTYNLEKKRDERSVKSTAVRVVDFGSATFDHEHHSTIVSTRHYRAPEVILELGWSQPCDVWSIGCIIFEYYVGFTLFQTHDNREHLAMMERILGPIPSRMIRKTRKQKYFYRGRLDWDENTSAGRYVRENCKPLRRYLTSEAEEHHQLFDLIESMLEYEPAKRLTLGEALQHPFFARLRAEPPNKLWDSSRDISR

As for `CN1CCC(Oc2ccc3[nH]c(-c4n[nH]c5ccc(-c6cnn(C)c6)cc45)nc3c2)CC1` [compound 299], the EC50 (as a rule, the concentration giving half of the maximal effect) is 170 nM in experiment [1], 29 nM in experiment [2], 1 nM in experiment [3] and 18.3 nM in experiment [4]. Besides, the Emax in experiment [1] was 100%.

In the case of `O=C(Nc1cc2cc(-c3cnn4c3CCNC4)ccc2cn1)c1ccc(OC(F)F)cc1` [compound 574], the EC50 in experiment [1] was 1920 nM; in experiment [2], 200 nM; in experiment [3], 2 nM; in experiment [4], 375 nM. Moreover, in experiment [1], the Emax worked out at 59.5%.

For the molecule `Cn1cc(-c2cc3c(C(=O)Nc4ccc(OCCN5CCCC5)cc4)n[nH]c3cc2F)cn1` [compound 108], the EC50 in experiment [1] was ≥ 3000 nM; in experiment [2], 101 nM; in experiment [3], 1 nM; in experiment [4], 315 nM. For the same molecule, in experiment [1], the Emax worked out at 32.1%.

For the molecule `O=C(Nc1ccc(OCCN2CCCC2)cc1)c1n[nH]cc1/C=C/c1cccnc1` [compound 19], the EC50 in experiment [1] is ≥ 3000 nM; in experiment [2], 967 nM; in experiment [3] it was 6 nM; in experiment [4], 1850 nM. For the same molecule, in experiment [1], the Emax was 31.1%.

On to `Cc1n[nH]c2ccc(-c3cncc(OC[C@@H]4Cc5ccccc5CN4)n3)cc12` [compound 50], for which the EC50 in experiment [1] is ≥ 3000 nM; in experiment [2] it was 5730 nM; in experiment [3] it was 27 nM; in experiment [4] it was 2810 nM. In addition, the Emax in experiment [1] came to 44.4%.

As to `CC#CC(=O)Nc1cc2cc(-c3cnn(C)c3)ccc2cn1` [compound 539], the EC50 in experiment [1] stood at 32.8 nM; in experiment [2], 123 nM; in experiment [3] it was 7 nM; in experiment [4], 513 nM. Further, the Emax in experiment [1] came out at 42.3%.

With `c1cncc(-c2ccc3[nH]nc(-c4cc5c(-c6cccnc6)cncc5[nH]4)c3c2)c1` [compound 341], the EC50 came to 1.1 nM in experiment [1], 3 nM in experiment [2] and 310 nM in experiment [4]. The Emax in experiment [1] and in experiment [5] was 58.2% in each case.

For the molecule `Cn1ncc(-c2ccc3cnc(NC(=O)c4cccc(CN5CCCC5)c4)cc3c2)c1CN1CCCCC1` [compound 572], the EC50 in experiment [1] is 1190 nM; in experiment [2], 15 nM; in experiment [3] it was 2 nM. Moreover, the Emax in experiment [1] is 96.5%; in experiment [5] it was 27.6%.

For `CC(C)N1CCC(Oc2cc(C(=O)Nc3cc4cc(-c5cnn6c5CCNC6)ccc4cn3)ccn2)CC1` [compound 575], the EC50 in experiment [1] was found to be 75.8 nM; in experiment [2], 26 nM; in experiment [3], 2 nM. Also, the Emax came out at 41.5% in experiment [1] and 18.6% in experiment [5].

Take `Cc1n[nH]c2ccc(-c3cncc(OCCN)c3)cc12` [compound 34]: the concentration giving a half-maximal response (EC50) was ≥ 3000 nM in experiment [1], 5250 nM in experiment [2] and 1640 nM in experiment [4]. Besides, in experiment [1], the Emax is 12.9%.

As to `Cn1cc(-c2ccc3cnc(NC(=O)C4=CNC5C=CC=CC5=C4)cc3c2)cn1` (stereo not drawn) [compound 559], the half-maximal effective concentration (EC50) in experiment [1] came out at 19.1 nM; in experiment [2] it was 66 nM; in experiment [3] it was 4 nM. The Emax in experiment [1] was 41.2%.

Turning to `Cn1ncc(-c2ccc3cnc(NC(=O)c4ccc(OC(F)F)cc4)cc3c2)c1CO` [compound 567], the results for the EC50 in experiment [1], in experiment [2] and in experiment [3] were 1370 nM, 261 nM and 8 nM, respectively. Moreover, in experiment [1], the Emax turned out to be 69.8%.

As for `CN(C)CCOc1cc(C(=O)Nc2cc3cc(-c4cnn(C)c4)ccc3cn2)ccn1` [compound 544], the EC50 in experiment [1] worked out at 1010 nM; in experiment [2] it was 31 nM; in experiment [3], 2 nM. Moreover, the Emax in experiment [1] stood at 63.5%.

Turning to `Cn1cncc1-c1ccc2cnc(NC(=O)c3ccc(F)cc3)cc2c1` [compound 580], the concentration giving a half-maximal response (EC50) was ≥ 3000 nM in experiment [1], 33 nM in experiment [2] and 1 nM in experiment [3]. Also, the Emax in experiment [1] was 59.4%; in experiment [5] it was 24.9%.

`Cn1cncc1-c1ccc2cnc(NC(=O)c3ccnc(N4CCN(C5CC5)CC4)c3)cc2c1` [compound 582]: the 50% effective concentration (EC50) in experiment [1] was ≥ 3000 nM; in experiment [2], 18 nM; in experiment [3], 2 nM. The Emax in experiment [1] turned out to be 52.2%.

Turning to `CN1CCC(Oc2ccc(C(=O)Nc3cc4cc(-c5cnn(C)c5)ccc4cn3)cc2)CC1` [compound 541], the EC50 in experiment [1] was ≥ 3000 nM; in experiment [2], 14 nM; in experiment [3], 1 nM. Further, the Emax in experiment [1] came to 95.6%; in experiment [5], 25.4%.

With `Cc1cc(C(=O)Nc2cc3cc(-c4cnn(C)c4)ccc3cn2)cc(N2CCN(C)CC2)n1` [compound 548], the EC50 was ≥ 3000 nM in experiment [1], 26 nM in experiment [2] and 2 nM in experiment [3]. Moreover, the Emax in experiment [1] was 62.4%.

As to `Cc1ncc(-c2ccc3cnc(NC(=O)c4ccc(OC(C)C)cc4)cc3c2)n1C` [compound 588], the EC50 in experiment [1] was found to be 10.5 nM; in experiment [2] it was 70 nM; in experiment [3], 2 nM. The Emax in experiment [1] turned out to be 74.7%.

For `CN1CCN(c2cc(C(=O)Nc3cc4cc(-c5cnn(C6CC6)c5)ccc4cn3)ccn2)CC1` [compound 565], the EC50 is 12.2 nM in experiment [1], 71 nM in experiment [2] and 6 nM in experiment [3]. Further, the Emax in experiment [1] amounted to 76.6%.

Take `CN1Cc2ccc(C(=O)Nc3cc4cc(-c5cncn5C)ccc4cn3)cc2C1` [compound 583]: the EC50 in experiment [1] is ≥ 3000 nM; in experiment [2], 27 nM; in experiment [3], 2 nM. In experiment [1], the Emax is 67.5%.

Regarding `CN1CCN(c2cc(C(=O)Nc3cc4cc(-c5cnc(N)s5)ccc4cn3)ccn2)CC1` [compound 593], the EC50 in experiment [1] worked out at 0.4 nM; in experiment [2], 22 nM; in experiment [3], 3 nM. The Emax in experiment [1] was 62.9%.

On to `CN(C)Cc1ccc(C(=O)Nc2cc3cc(-c4cnn(C)c4)ccc3cn2)cc1` [compound 540], for which the results for the EC50 in experiment [1], in experiment [2] and in experiment [3] were 47.4 nM, 41 nM and 3 nM, respectively. The Emax in experiment [1] is 80.7%.

As to `NC1CN(c2cc(C(=O)Nc3cc4cc(-c5cnco5)ccc4cn3)ccn2)C1` [compound 590], the EC50 in experiment [1] was ≥ 3000 nM; in experiment [2], 40 nM; in experiment [3] it was 4 nM. Further, the Emax in experiment [1] came to 33.2%.

In the case of `Cc1nnc(-c2ccc3cnc(NC(=O)c4ccnc(C5CCN(C)CC5)c4)cc3c2)s1` [compound 594], the EC50 in experiment [1] was 143 nM; in experiment [2] it was 14 nM; in experiment [3], 2 nM. Further, the Emax in experiment [1] is 35.3%.

With `Cn1cc(-c2ccc3cnc(NC(=O)c4ccnc(N5CC6CC5CN6)c4)cc3c2)cn1` (stereo not drawn) [compound 549], the EC50 in experiment [1] is ≥ 3000 nM; in experiment [2] it was 26 nM; in experiment [3], 3 nM. In experiment [1], the Emax is 69%.

As to `Cn1cc(-c2ccc3cnc(NC(=O)c4ccnc(OC5CNC5)c4)cc3c2)cn1` [compound 556], the EC50 amounted to 154 nM in experiment [1], 38 nM in experiment [2] and 2 nM in experiment [3]. The Emax in experiment [1] came out at 100%.

For the molecule `Cn1cc(-c2ccc3cnc(NC(=O)c4ccc5cnccc5c4)cc3c2)cn1` [compound 560], the concentration for a half-maximal effect (EC50) in experiment [1] is ≥ 3000 nM; in experiment [2] it was 85 nM; in experiment [3] it was 4 nM. Further, in experiment [1], the Emax was 63.6%.

`CN1CCN(c2ccc(C(=O)Nc3cc4cc(-c5cnn6c5CN(CCF)CC6)ccc4cn3)cn2)CC1` [compound 576]: the EC50 is ≥ 3000 nM in experiment [1], 81 nM in experiment [2] and 2 nM in experiment [3]. Besides, the Emax in experiment [1] was 62.6%.

(Values after patent US20230000842A1, “METHODS OF TREATING CARTILAGE DISORDERS THROUGH INHIBITION OF CLK AND DYRK” (SAMUMED, LLC, priority 2019, published 2023).)
